Data from paper PMC6594751, “The mechanism of error induction by the antibiotic viomycin provides insight into the fidelity mechanism of translation” (eLife, 2019).
Like-named read-outs stand apart in the source and are kept apart here.

What was measured:
[1] = test system: 70S ribosomes displaying cognate (UUC) or near-cognate (CUC) codon in the A site; experiment: GTP hydrolysis by EF-Tu in ternary complex (initial codon selection), quench-flow; assay type: biochemical, E. coli
Description: (§1) To study the impact of viomycin on translational accuracy, we designed experiments to measure its effect on the kinetic efficiency ( kcat/KM ) of GTP hydrolysis by EF-Tu and peptide bond formation for both cognate and near-cognate codon-anticodon interactions. A reaction mixture containing varying concentrations of viomycin and Phe-tRNAGAAPhe in TC with EF-Tu·GTP was rapidly mixed in a quench-flow instrument with initiated 70S ribosomes displaying either cognate (UUC) or near-cognate (CUC) codons in the A site. For studying GTP hydrolysis, the TCs contained [^3H]GTP and the 70S ribosomes had non-radioactive fMet-tRNA^fMet in the P site, while for studying peptide bond formation the TCs contained non-radioactive GTP and the 70S ribosomes had f[^3H]Met-tRNA^fMet bound in the P site. The reactions were stopped at different times by addition of formic acid and the relative amounts of the reaction products were analyzed by ion-exchange chromatography ([^3H]GDP) or RP-HPLC (f[^3H]Met-Phe) with on-line radiation detection.
(§2) All experiments were performed at 37°C in HEPES-polymix buffer (95 mM KCl, 5 mM NH4Cl, 0.5 mM CaCl2, 8 mM putrescine, 1 mM spermidine, 5 mM Mg(OAc)2, 1 mM dithioerythritol and 5 mM HEPES pH 7.5). All reaction mixes contained 10 mM phosphoenolpyruvate (PEP), 1 µg/ml pyruvate kinase (PK) and 0.1 µg/ml myokinase (MK). His-tagged initiation factors IF1, IF2 and IF3, elongation factor Ts, and phenylalanine and leucine aminoacyl tRNA-synthetases were purified using nickel-affinity chromatography (HisTrap GE Healthcare). Wild-type elongation factor Tu was prepared as in [Ehrenberg et al. (1990)]. All protein concentrations were determined using the Bradford assay. Ribosomes (E. coli MRE600) and f[^3H]Met-tRNA^fMet were prepared according to [Antoun et al. (2004)]; ribosome concentration was determined spectrophotometrically. XR7 mRNAs with coding sequences AUG-UUC, AUG-CUC, AUG-UAC and AUG-UUA were prepared as in [Borg and Ehrenberg (2015)], see theGV Appendix I for full mRNA sequences. tRNA^Phe was prepared as in [Holm et al. (2016)]. [^3H]Met and [^3H]GTP were from Perkin-Elmer, viomycin was from USP, all other chemicals were from either Merck or Sigma-Aldrich.
Two mixtures were prepared. The ribosome mixture contained 70S ribosomes (1.0–2.0 µM), IF1, IF2 and IF3 (2 µM each), fMet-tRNA^fMet(1.5–3.0 µM), mRNA (3 µM), GTP (1 mM) and ATP (1 mM). The TC mixture contained EF-Tu (0.3–0.6 µM), phenylalanine (200 µM), PheRS (0.5 µM), tRNA^Phe (2 µM), viomycin (0–2000 µM), [^3H]GTP (0.3–0.6 µM) and ATP (2 mM). After 15 min incubation at 37°C, equal volumes of the two mixes were rapidly mixed and the reaction quenched at different time points with formic acid (17% final concentration) using a quench-flow instrument (RQF-3 KinTek corp.). After quenching, the samples were centrifuged at 20,800 g. The supernatant, containing the [^3H]GTP and [^3H]GDP was analyzed by anion exchange chromatography with on-line scintillation counting (β-RAM model 4 IN/US systems). A Mono-Q GL column (GE Healthcare) was used and the mobile phase was a multistep gradient of 0–2 M NaCl in 20 mM Tris (pH 7.5).
Reaction rates were estimated by fitting of single exponential functions to the experimental time courses except for the GTP hydrolysis reactions without viomycin on near-cognate codons which were analyzed as in [Johansson et al. (2012)]. kcat/KM values were estimated by fitting of the Michaelis-Menten equation to plots of reaction rates versus concentration. […]

[2] = test system: 70S ribosomes displaying cognate UUC or near-cognate codons CUC, AUC, UAC or UUA in the A site; experiment: f[^3H]Met-Phe dipeptide formation, quench-flow; assay type: biochemical, E. coli
Description: as §1
The model presented above predicts that viomycin sensitivity ( KInc ) for any codon·anticodon pair depends on the accuracy of initial codon selection as defined by the product of the near-cognate back reaction rate constants q3nc and q4nc (Equations 4 and 5) in the absence as well as presence of viomycin. […] To test this prediction, we measured how the kcat/KM of dipeptide formation varied with viomycin concentration for tRNAGAAPhe reading three additional near-cognate codons (Figure 4A); AUC, UAC or UUA (the underlined base differs from the cognate codon UUC). We quantified the viomycin sensitivity of each codon by estimating its KI value by fitting of Equation 4 to plots of kcat/KM versus viomycin concentration (Figure 4B). We also estimated the accuracies of initial selection by measuring kcat/KM for GTP hydrolysis with the three codons in the absence of viomycin. Both sets of experiments were carried out exactly as described above.
as §2
Two mixtures were prepared. The ribosome mixture contained 70S ribosomes (0.5 µM), IF1, IF2 and IF3 (1 µM each), f[^3H]Met-tRNA^fMet (1 µM), mRNA (2 µM), GTP (1 mM) and ATP (1 mM). The TC mixture contained EF-Tu (1–10 µM), EF-Ts (1 µM), phenylalanine (200 µM), PheRS (0.5 µM), tRNA^Phe (12 µM), viomycin (0–2000 µM), GTP (1 mM) and ATP (1 mM). After 15 min incubation at 37°C, equal volumes of the two mixes were rapidly mixed and the reaction quenched at different time points with formic acid (17% final concentration) using a quench-flow instrument (RQF-3 KinTek corp.). After quenching, the samples were centrifuged at 20,800 g and the supernatant discarded. The pellet was dissolved in 165 µl 0.5 M KOH to cleave the peptides from the tRNA. […]

[3] = test system: TC^H84A on 70S ribosomes displaying cognate UUC or near-cognate CUC codon; experiment: EF-Tu^H84A chase experiments (ternary complex dissociation from the A site); assay type: biochemical, E. coli; conditions: 37°C
Description: To address whether viomycin also stabilizes TCs in the A site during initial codon selection, we estimated the rate of dissociation of both cognate and near-cognate tRNAs in TC (TC ^H84A) with a GTPase-deficient mutant of EF-Tu (EF-Tu^H84A). In this EF-Tu mutant, an essential histidine in the G-domain has been replaced by alanine ([Daviter et al., 2003]), but formation of TC ^H84A is unhindered and the mutant TC carries out all partial reactions during initial codon selection, excluding GTP hydrolysis ([Daviter et al., 2003]; [Gromadski and Rodnina, 2004]). Initiated 70S ribosomes with f[^3H]Met-tRNA^fMet in the P site and a cognate (UUC) or near-cognate (CUC) codon in the A site were equilibrated with TC^H84A containing Phe-tRNAGAAPhe and GTP in the presence of varying concentrations of viomycin. TC^H84As were chased from the A site by addition of GTPase proficient TC, containing WT EF-Tu (EF-Tu^WT) and either Phe-tRNAGAAPhe or Leu-tRNAGAGLeu2 , whichever was cognate for the codon in the A site. The dissociation rate for TC^H84A s from the A site, defined as the inverse of the average dissociation time, was then estimated from the rate of f[^3H]Met-Phe or f[^3H]Met-Leu formation (supplementary methods).
as §2
The wild type tufA gene from E. coli Mg1655 was cloned in the pET21b vector with a C-terminal hexahistidine tag. Using this construct, the Histidine at position 84 was changed to Alanine by following the standard protocol from the QIAGEN site directed mutagenesis kit. Successful mutation was confirmed by DNA sequencing. […]

mRNA translocation = conditions: ref Holm et al., 2016; Modolell and Vázquez, 1977; cited from earlier work
ribosome = conditions: ref Holm et al., 2016; cited from earlier work
Description: From these structures it seems likely that association of viomycin to the ribosome requires bases A1492 and A1493 in their flipped-out conformation and that the presence of viomycin on the ribosome will effectively block the monitoring bases from re ...

[4] = test system: peptidyl-tRNA in the ribosomal A site; conditions: ref Holm et al., 2016; Peske et al., 2004; cited from earlier work
tRNA selection = test system: tRNA selection; set-up: method as in Marrero et al., 1980; conditions: ref Marrero et al., 1980; cited from earlier work
[5] = CUC vs UUC, 1 mM viomycin vs absence of viomycin

## viomycin
[1]; [5]
  reduction in the accuracy of initial codon selection: 170 fold
[1]; cognate UUC codon, Phe-tRNA^Phe TC, viomycin 0 to 1 mM, HEPES-polymix pH 7.5, 37°C, error SEM
  kcat/KM of cognate GTP hydrolysis (average over 0 to 1 mM viomycin): 4.1e+07 ± 600000 M⁻¹ s⁻¹
[1]; cognate UUC codon, viomycin 0 to 1 mM, 37°C
  effect of viomycin on kcat/KM of cognate GTP hydrolysis: did not change with increasing viomycin concentration
[1]; near-cognate CUC codon, 1 mM viomycin (0.053 ± 0.005 in the absence of viomycin), HEPES-polymix pH 7.5, 37°C, error SEM
  kcat/KM of near-cognate GTP hydrolysis: 9.2e+06 ± 700000 M⁻¹ s⁻¹
[1]; tRNA^Phe(GAA) reading near-cognate codon CUC, fit of Equation 4 (Figure 1B), 37°C, read-out: KI (viomycin concentration at which accuracy has decreased to two), from GTP hydrolysis
  Ki: 3.1 ± 0.2 mM
[2]; CUC vs UUC, 1 mM viomycin (83,500 ± 8000 without viomycin)
  total accuracy: 4.0 ± 0.3
[2]; [5]
  reduction in total accuracy: 21,000 fold
[2]; codons CUC, AUC, UAC, UUA (Figure 4C)
  correlation of accuracy of initial selection with viomycin KI: clear correlation between the two
[2]; cognate UUC codon, 37°C
  effect of viomycin on kcat/KM of cognate dipeptide formation: did not change with the addition of viomycin
[2]; cognate UUC codon, HEPES-polymix pH 7.5, 37°C, error SEM
  kcat/KM of cognate dipeptide formation (average over viomycin concentrations): 3.83e+07 ± 700000 M⁻¹ s⁻¹
[2]; near-cognate CUC codon, 1 mM viomycin (0.0005 ± 0.00004 in the absence of viomycin), HEPES-polymix pH 7.5, 37°C, error SEM
  kcat/KM of near-cognate dipeptide formation: 9.4e+06 ± 800000 M⁻¹ s⁻¹
[2]; near-cognate CUC codon, all tested viomycin concentrations
  kcat/KM of near-cognate GTP hydrolysis compared with dipeptide formation: virtually identical
[2]; near-cognate CUC, from in vitro experiments
  viomycin concentration required to double the rate at which tRNA^Phe reads the codon CUC: 80 ± 8 nM
[2]; near-cognate, proofreading accuracy 115 ± 15 in the absence of viomycin
  proofreading selection by viomycin-bound ribosomes: incapable of performing proofreading selection
[2]; tRNA^Phe(GAA) reading near-cognate codon AUC (first position mismatch), fit of Equation 4, accuracy of initial selection 2400 ± 120 without viomycin, read-out: KI from dipeptide formation, AUC
  Ki: 7 ± 0.3 mM
[2]; tRNA^Phe(GAA) reading near-cognate codon CUC, fit of Equation 4 (Figure 1D), 37°C, read-out: KI (viomycin concentration at which accuracy has decreased to two), from dipeptide formation, CUC
  Ki: 3.3 ± 0.1 mM
[2]; tRNA^Phe(GAA) reading near-cognate codon UAC (second position mismatch), fit of Equation 4, accuracy of initial selection 6400 ± 670 without viomycin, read-out: KI from dipeptide formation, UAC
  Ki: 29 ± 2.7 mM
[2]; tRNA^Phe(GAA) reading near-cognate codon UUA (third position mismatch), fit of Equation 4, accuracy of initial selection 580 ± 47 without viomycin, read-out: KI from dipeptide formation, UUA
  Ki: 3.25 ± 0.2 mM
[3]; cognate UUC codon, 1 µM viomycin (1.21 ± 0.088 in the absence of viomycin), pH 7.5
  rate of TC^H84A dissociation, cognate, 1 µM viomycin: 0.616 ± 0.044 s⁻¹
[3]; cognate UUC codon, 10 µM viomycin (1.21 ± 0.088 in the absence of viomycin), pH 7.5
  rate of TC^H84A dissociation, cognate, 10 µM viomycin: 0.198 ± 0.0275 s⁻¹
[3]; near-cognate CUC codon, 200 µM viomycin, pH 7.5
  apparent near-cognate TC^H84A dissociation rate, 200 µM viomycin: 0.209 ± 0.066 s⁻¹
[3]; tRNA^Phe(GAA) reading cognate codon UUC, linear fit of Equation 6 to dissociation mean times (Figure 2B), read-out: KI^c (viomycin concentration at which rate of viomycin rebinding to TC-bound ribosome equals rate of TC dissociation unhindered by rebinding)
  Ki: 0.0094 ± 0.0033 mM
mRNA translocation
  effect on rate of mRNA translocation: reduces the rate of mRNA translocation
ribosome
  effect of A-site-bound tRNA on affinity of viomycin for the ribosome: A-site-bound tRNA greatly increases the affinity of viomycin for the ribosome
[4]
  stabilization of peptidyl-tRNA in the ribosomal A site: strongly stabilize peptidyl-tRNA in the ribosomal A site
tRNA selection
  effect on fidelity of tRNA selection: impairs the fidelity of tRNA selection
